Assay results: US20060128613A1, “Melanocortin receptor ligands” (The Procter & Gamble Company, priority 2003, published 2006)

Experiment: Composition and Method Examples A-E: treatment of obese human subjects to incur or maintain weight loss
Assay type: in vivo
Description: An obese human subject weighing 130 kg is treated by this method to incur weight loss. Specifically, once each day for a period of 6 months, the subject is administered, via intravenous injection, 15 ml of an aqueous solution comprising the following:
An obese human subject weighing 150 kg is subjected to a weight-reduction program that achieves weight loss with reduced adiposity through a combination of a restricted diet and increased exercise. Specifically, once each day for a period of 6 months after weight loss, the subject is administered, via intravenous injection, 15 ml of an aqueous solution comprising the following:
An obese human subject weighing 165 kg is subjected to a weight reduction program that achieves weight loss through a combination of restricted diet, increased exercise and subcutaneous injection daily of 15 mls of an aqueous solution comprising:
Once the desired weight loss has been achieved, the patient's weight loss is maintained through continuation of the intravenous injection once each day for an additional period of 6 months.
An obese human subject weighing 140 kg is treated by the present method to incur weight loss. Specifically, they are treated with an implantable subcutaneous pump that delivers 0.1 mg/kg of the compound of Example 31 over a 24 hour period. The pump contains a solution of the compound dissolved in a solution of 50% propylene glycol and 50% sterile water.
An obese person weighing 150 kg is treated by this method to incur weight loss. Specifically, they are treated with an oral tablet taken twice daily containing 300 mg of the compound in Example 29.

3-(4-OHPh)propanoyl-(4-F-f)RW—NH2 [Example 88]
maintained weight loss and adiposity at the end of the treatment period (Example C: obese human 165 kg, diet, exercise and daily subcutaneous injection of 15 ml, 5 mg/ml, then injection once each day for additional 6 months): maintained weight loss and reduced adiposity

Ac-(L-4-Chloro-Phe)(D-4-Fluoro-Phe)RW—NH2 [Example 29]
weight loss and adiposity after 12 months treatment (Example E: obese person 150 kg, oral tablet 300 mg twice daily, 12 months): weight loss and reduced adiposity

Ac-(L-4-Chloro-Phe)fRW(N-Me-Gly)-NH2 [Example 31]
weight loss and adiposity after six-month treatment (Example D: obese human 140 kg, implantable subcutaneous pump delivering 0.1 mg/kg over 24 hours, six months): weight loss and reduced adiposity

Ac—YfHW—NH2 [Example 9]
maintenance of weight loss and adiposity at the end of the treatment period (Example B: obese human 150 kg after diet and exercise weight loss, intravenous injection once each day for 6 months, 15 ml, 5 mg/ml): maintenance of weight loss and reduced adiposity

Ac—YfRW—NH2 [Example 1]
weight loss at the end of the treatment period (Example A: obese human 130 kg, intravenous injection once each day for 6 months, 15 ml aqueous solution, 5 mg/ml): measurable weight loss
